From publication PMC3561959 (Nucleic Acids Research, 2012)

How the values were obtained:
DBD-F^MBP = DBD-F^MBP (Homo sapiens, UniProt P27694); assay type: binding; settings: competitive titration, fluorescence anisotropy
RPA = RPA (Homo sapiens, UniProt P27694); experiment: Helix destabilization assay; assay type: biochemical; settings: EMSA, dsDNA probe, 200 µM of each compound
Sequence of RPA (P27694 whole entry): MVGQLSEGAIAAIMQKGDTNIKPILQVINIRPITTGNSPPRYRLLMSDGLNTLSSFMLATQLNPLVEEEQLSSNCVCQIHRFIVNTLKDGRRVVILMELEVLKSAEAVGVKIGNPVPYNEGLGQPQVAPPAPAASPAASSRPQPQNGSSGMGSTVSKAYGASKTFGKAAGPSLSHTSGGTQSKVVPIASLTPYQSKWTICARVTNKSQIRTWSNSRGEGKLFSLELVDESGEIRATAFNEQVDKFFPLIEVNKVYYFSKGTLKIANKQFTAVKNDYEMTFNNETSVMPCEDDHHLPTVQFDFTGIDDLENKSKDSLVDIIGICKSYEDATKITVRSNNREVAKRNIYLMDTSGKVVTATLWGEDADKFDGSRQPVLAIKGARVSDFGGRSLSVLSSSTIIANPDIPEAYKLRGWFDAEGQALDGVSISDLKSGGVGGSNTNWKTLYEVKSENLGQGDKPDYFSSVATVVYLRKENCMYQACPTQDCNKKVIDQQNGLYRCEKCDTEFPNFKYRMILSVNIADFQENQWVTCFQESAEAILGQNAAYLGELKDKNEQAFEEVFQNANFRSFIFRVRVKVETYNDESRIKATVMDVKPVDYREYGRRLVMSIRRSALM
Sequence of RPA (P15927 whole entry partner): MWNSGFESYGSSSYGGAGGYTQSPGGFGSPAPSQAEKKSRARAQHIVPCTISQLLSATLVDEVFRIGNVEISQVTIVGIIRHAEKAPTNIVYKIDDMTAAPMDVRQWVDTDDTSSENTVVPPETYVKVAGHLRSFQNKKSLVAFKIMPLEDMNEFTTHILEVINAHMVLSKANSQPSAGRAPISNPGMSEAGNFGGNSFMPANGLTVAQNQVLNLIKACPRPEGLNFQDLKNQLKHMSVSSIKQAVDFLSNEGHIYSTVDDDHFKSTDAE
Sequence of RPA (P35244 whole entry partner): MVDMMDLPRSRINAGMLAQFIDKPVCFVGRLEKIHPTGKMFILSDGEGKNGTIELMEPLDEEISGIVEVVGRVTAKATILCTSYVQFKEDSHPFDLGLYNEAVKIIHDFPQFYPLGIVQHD

Sequence of DBD-F^MBP (P27694 1-168): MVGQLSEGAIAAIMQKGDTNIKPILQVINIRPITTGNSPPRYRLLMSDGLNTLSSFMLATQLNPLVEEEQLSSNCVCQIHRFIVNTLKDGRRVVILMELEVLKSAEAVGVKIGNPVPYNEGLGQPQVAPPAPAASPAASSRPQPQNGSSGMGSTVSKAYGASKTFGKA

Row | Structure (SMILES) | competition with X-rhodamine-labelled p53TAD2 for binding to DBD-F^MBP (DBD-F^MBP) | inhibition of helix destabilization by RPA (RPA)
1 | O=C(O)C1CCC(C(=O)O)CC1 (stereo not shown) [1,4-cyclohexanedicarboxylic acid] | no evidence of binding | no effect
2 | O=C(O)CCC(=O)O [succinic acid] | no evidence of binding | no effect
